Activity calls are given as the source filed them.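 Rule for the calls: active = compounds blocking the PEG3 reporter with IC50 up to 10 µM at either incubation, yet sparing the GAPDH control reporter; inactive = the rest.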
Assay: GAPDH and PEG-3 promoter luciferase suppression – cell-based, luminescence, set 2, counter-screen for PEG-3 promoter inhibitor project, dose response (AID 651549)
Conditions: HeLa PEG-Prom-luciferase or GAPDH-reporter, 6/24 h

SMILES | IC50 (GAPDH, run 1, 6 h) | IC50 (GAPDH, run 1, 24 h) | IC50 (PEG-3, run 1, 6 h) | IC50 (PEG-3, run 1, 24 h)
CC1CC(C)C(=O)C(C(CC2CC(=O)NC(=O)C2)OC(=O)CC(=O)c2ccccc2)C1 (stereo not given) | 1.36 µM | 7.25 µM | 5.46 µM | inactive
O=C(NCC1CCCO1)C(c1ccc(F)cc1)N(C(=O)Cn1nnc(-c2ccc(F)cc2)n1)c1cccc(O)c1 (stereo not given) | inactive | inactive | > 99 µM (inactive) | inactive
C=CCn1c(C)cc(C(=O)COc2ccc(C)nc2[N+](=O)[O-])c1C | 8.44 µM | inactive | 9.65 µM | 3.38 µM
C[C@]12CC[C@H]3C(CCC4(O)CC(O)CC[C@]34C=O)C1=CC[C@H]2c1ccc(=O)oc1 (stereo not given in full) | 3.59 µM | inactive | 1.52 µM | 7.64 µM
CN1CCC2(CC1)N=C(c1ccc(F)cc1)C(=S)N2C(=O)c1ccc(C(C)(C)C)cc1 | inactive | inactive | inactive | inactive
